Measurements as given in patent US20250127761A1, “Telmisartan Nanosuspension for Therapy of Respiratory Infections and Methods of Making and Using Same” (Soligenix, Inc., priority 2022, published 2025).

Tests used:
ANG II type 1 receptor = assay: Inhibition of ANG II-mediated intracellular calcium spike in lung smooth muscle cells; format: cell-based
[1] = cynomolgus monkey, in vivo

For `CCCc1nc2c(C)cc(-c3nc4ccccc4n3C)cc2n1Cc1ccc(-c2ccccc2C(=O)O)cc1` [FD-TEL, telmisartan], the “ANG II-mediated transient [Ca2+]i spike” value (ANG II type 1 receptor) was “equally and entirely abrogated” and the creatine kinase [1] was “significant increase”.
